The numbers were not newly measured in PMC8942822 (The Journal of Biological Chemistry, 2022), which cites them from elsewhere.

In general, Kd refers to a measure of binding affinity in units of concentration.

Series [1] concerns the target T1, SpaASLH (SLH domain trimer of S-layer protein SpaA, wild-type) (Paenibacillus alvei, UniProt C1JZ07).
T1 sequence (C1JZ07 21-193): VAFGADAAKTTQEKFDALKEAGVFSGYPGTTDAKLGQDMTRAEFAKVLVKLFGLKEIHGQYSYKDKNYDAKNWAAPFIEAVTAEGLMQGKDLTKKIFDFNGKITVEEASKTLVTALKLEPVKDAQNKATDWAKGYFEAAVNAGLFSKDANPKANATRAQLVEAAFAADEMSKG

For a further series, the target named is T2, SpaASLH/G109A (Paenibacillus alvei, UniProt C1JZ07, G109A).
T2 sequence (C1JZ07 21-193 G109A): T1 sequence (C1JZ07 21-193)

The next series relates to SpaASLH/G46A/G109A. As to conditions: 20 °C, SpaASLH/G46A/G109A double mutant, previously published.
[2] abbreviates: ITC, 20 °C, SpaASLH wild-type, previously published.
The mark [3] stands for this setting: ITC, 20 °C, SpaASLH/G109A, previously published.

Regarding `CO[C@@H]1O[C@@H]2CO[C@](C)(C(=O)O)O[C@H]2[C@H](O[C@@H]2O[C@H](CO)[C@@H](O)[C@H](O)[C@H]2NC(C)=O)[C@@H]1NC(C)=O` [internal disaccharide, β-D-GlcNAc-(1→3)-4,6-Pyr-β-D-ManNAcOMe], the “Binding by ITC” value in series [1] (ITC experiments with internal-repeat SCWP disaccharide) is “lack of corresponding measurable binding”.
`CO[C@@H]1O[C@@H]2CO[C@](C)(C(=O)O)O[C@H]2[C@H](O)[C@@H]1NC(C)=O` [monosaccharide, 4,6-Pyr-β-D-ManNAcOMe]: in series [1] (setting [2]), the KA is on record as 3.48 × 10^7 ± 0.36 M^−1, the equilibrium dissociation constant (Kd) was 29 nM, the Stoichiometry is given as 0.91 ± 0.04 and the ΔG is -10.06 ± 0.155 kcal/mol. For the same compound, in series [1] (setting [2]), the ΔH is -21 ± 3.733 kcal/mol and the “−TΔS” value is 10.93 ± 3.826 kcal/mol. Besides, the “Decrease of ITC binding affinity, G109A mutant (G1 binding) vs wild-type” value at SpaASLH/G109A is listed as “tenfold”. In addition, on SpaASLH/G109A (setting [3]), the KA is given as 4.48 × 10^6 ± 0.62 M^−1, the Kd is 226 nM, the Stoichiometry is on record as 0.92 ± 0.04 and the ΔG was -8.917 ± 0.0789 kcal/mol. Further, at SpaASLH/G109A (setting [3]), the ΔH was -12.1 ± 1.74 kcal/mol and the “−TΔS” value was 3.186 ± 1.67 kcal/mol. Further, the “Binding by ITC” value in the series with SpaASLH/G46A/G109A is listed as “No binding”.
